For one assay, the system named is HCV 1b-377-neo replicon cells. As to the kind of experiment: HCV replicon assay, HCV 1b-377-neo replicon cells (1b FRET). The assay is classed as cell-based, Hepatitis C virus genotype 1b. Conditions: HCV 1b-377-neo replicon cells; HCV 1b genotype. In a few lines:
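FRET-based replicon assay in HCV 1b-377-neo cells, including a comparison line carrying the NS5A Y2065H mutation that confers resistance to a reference compound.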
(In antiviral work, replicon cells carry a viral genome segment that copies itself.)
For the molecule `CCN(CC)[C@@H](C(=O)N1CCC[C@H]1c1ncc(-c2ccc(-c3ccc(-c4cnc([C@@H]5CCCN5C(=O)[C@@H](C(C)C)N(CC)CC)[nH]4)cc3)cc2)[nH]1)C(C)C` [Example M10, (2R,2′R)-1,1′-(4,4′-biphenyldiylbis(1H-imidazole-5,2-diyl(2S)-2,1-pyrrolidinediyl))bis(N,N-diethyl-3-methyl-1-oxo-2-butanamine)], the “EC50 range against HCV 1b (Table 2, Range)” value is reported as “>A”.
The same measure, in the same setting: the value for `C[C@@H](C(=O)N1CCC[C@H]1c1ncc(-c2ccc(-c3ccc(-c4cnc([C@@H]5CCCN5C(=O)[C@H](C)N(C)C)[nH]4)cc3)cc2)[nH]1)N(C)C` [Example M19, (2S,2′S)-1,1′-(4,4′-biphenyldiylbis(1H-imidazole-5,2-diyl(2S)-2,1-pyrrolidinediyl))bis(N,N-dimethyl-1-oxo-2-propanamine)] was “>A”.

Still in this assay, the particulars now being: HCV 1b-377-neo replicon cells; HCV 1b genotype; read-out: EC50 range against HCV 1b (Table 2, Range).
As a reminder, the EC50 is the concentration at which the effect is half-maximal. In the case of `CC[C@H](NC(=O)OC)C(=O)N1CCC[C@H]1c1ncc(-c2ccc(-c3ccc(-c4cnc([C@@H]5CCCN5C(=O)[C@H](CC)NC(=O)OC)[nH]4)cc3)cc2)[nH]1` [Example M21, dimethyl (4,4′-biphenyldiylbis(1H-imidazole-5,2-diyl(2S)-2,1-pyrroldinediyl((2S)-1-oxo-1,2-butanediyl)))biscarbamate], the EC50 fell in the range of 1 to 99 nM.
In the case of `CCC[C@H](NC(=O)OC)C(=O)N1CCC[C@H]1c1ncc(-c2ccc(-c3ccc(-c4cnc([C@@H]5CCCN5C(=O)[C@H](CCC)NC(=O)OC)[nH]4)cc3)cc2)[nH]1` [Example M27, methyl ((1S)-1-(((2S)-2-(5-(4′-(2-((2S)-1-((2S)-2-((methoxycarbonyl)amino)pentanoyl)-2-pyrroldinyl)-1H-imidazol-5-yl)-4-biphenylyl)-1H-imidazol-2-yl)-1-pyrrolidinyl)carbonyl)butyl)carbamate], the EC50 was 1 to 99 nM.

The same assay, now with this note: Hepatitis C virus, HCV 1b-377-neo replicon cells; HCV 1b genotype; read-out: EC50 range against HCV 1b (Table 2, Range).
In the case of `CCN(CC)[C@H](C)C(=O)N1CCC[C@H]1c1ncc(-c2ccc(-c3ccc(-c4cnc([C@@H]5CCCN5C(=O)[C@@H](C)N(CC)CC)[nH]4)cc3)cc2)[nH]1` [Example M9, (2R,2′R)-1,1′-(4,4′-biphenyldiylbis(1H-imidazole-5,2-diyl(2S)-2,1-pyrrolidinediyl))bis(N,N-diethyl-1-oxo-2-propanamine)], the EC50 lay in the range of 100 to 999 nM.
With `COC(=O)N(C)[C@H](C(=O)N1CCC[C@H]1c1ncc(-c2ccc(-c3ccc(-c4cnc([C@@H]5CCCN5C(=O)[C@H](C(C)C)N(C)C(=O)OC)[nH]4)cc3)cc2)[nH]1)C(C)C` [Example M11, methyl ((1S)-1-(((2S)-2-(5-(4′-(2-((2S)-1-((2S)-2-((methoxycarbonyl)(methyl)amino)-3-methylbutanoyl)-2-pyrrolidinyl)-1H-imidazol-5-yl)-4-biphenylyl)-1H-imidazol-2-yl)-1-pyrrolidinyl)carbonyl)-2-methylpropyl)methyl-carbamate], the EC50 lay in the range of 1 to 99 nM.
Same read-out and setting: the same measure for `COC(=O)N[C@H](C(=O)N1CCC[C@H]1c1ncc(-c2ccc(-c3ccc(-c4cnc([C@@H]5CCCN5C(=O)[C@@H](NC(=O)OC)c5ccccc5)[nH]4)cc3)cc2)[nH]1)c1ccccc1` [Example M12, dimethyl (4,4′-biphenyldiylbis(1H-imidazole-5,2-diyl(2S)-2,1-pyrrolidinediyl((1S)-2-oxo-1-phenyl-2,1-ethanediyl)))biscarbamate]: 1 to 99 nM.
Take `CCCN(CCC)[C@H](C)C(=O)N1CCC[C@H]1c1ncc(-c2ccc(-c3ccc(-c4cnc([C@@H]5CCCN5C(=O)[C@@H](C)N(CCC)CCC)[nH]4)cc3)cc2)[nH]1` [Example M13, N,N′-(4,4′-biphenyldiylbis(1H-imidazole-5,2-diyl(2S)-2,1-pyrrolidinediyl((2R)-1-oxo-1,2-propanediyl)))bis(N-propyl-1-propanamine)]: the EC50 fell in the range of 100 to 999 nM.
Turning to `COC(=O)N[C@H](C(=O)N1CCC[C@H]1c1ncc(-c2ccc(-c3ccc(-c4cnc([C@@H]5CCCN5C(=O)[C@@H](NC(=O)OC)C(C)(C)O)[nH]4)cc3)cc2)[nH]1)C(C)(C)O` [Example M14, methyl ((1S)-2-hydroxy-1-(((2S)-2-(5-(4′-(2-((2S)-1-((2S)-3-hydroxy-2-((methoxycarbonyl)amino)-3-methylbutanoyl)-2-pyrrolidinyl)-1H-imidazol-5-yl)-4-biphenylyl)-1H-imidazol-2-yl)-1-pyrrolidinyl)carbonyl)-2-methylpropyl)carbamate], the EC50 was 100 to 999 nM.
As for `COC(=O)N[C@H](C(=O)N1CCC[C@H]1c1ncc(-c2ccc(-c3ccc(-c4cnc([C@@H]5CCCN5C(=O)[C@@H](NC(=O)OC)[C@@H](C)O)[nH]4)cc3)cc2)[nH]1)[C@@H](C)O` [Example M15, methyl ((1S,2R)-2-hydroxy-1-(((2S)-2-(5-(4′-(2-((2S)-1-((2S,3R)-3-hydroxy-2-((methoxycarbonyl)amino)butanoyl)-2-pyrrolidinyl)-1H-imidazol-5-yl)-4-biphenylyl)-1H-imidazol-2-yl)-1-pyrrolidinyl)carbonyl)propyl)carbamate], the EC50 is 100 to 999 nM.
The same measure, in the same setting: the same measure for `COC(=O)N[C@H](C(=O)N1CCC[C@H]1c1ncc(-c2ccc(-c3ccc(-c4cnc([C@@H]5CCCN5C(=O)[C@@H](NC(=O)OC)[C@H](C)O)[nH]4)cc3)cc2)[nH]1)[C@H](C)O` [Example M16, methyl ((1S,2S)-2-hydroxy-1-(((2S)-2-(5-(4′-(2-((2S)-1-((2S,3S)-3-hydroxy-2-((methoxycarbonyl)amino)butanoyl)-2-pyrrolidinyl)-1H-imidazol-5-yl)-4-biphenylyl)-1H-imidazol-2-yl)-1-pyrrolidinyl)carbonyl)propyl)carbamate]: 1000 to 10000 nM; for `COC(=O)N[C@@H](C)C(=O)N1CCC[C@H]1c1ncc(-c2ccc(-c3ccc(-c4cnc([C@@H]5CCCN5[C@@](C)(C=O)NC(=O)OC)[nH]4)cc3)cc2)[nH]1` [Example M17, methyl ((1S)-1-((2S)-2-(5-(4′-(2-((2S)-1-(N-(methoxycarbonyl)-L-alanyl)-2-pyrrolidinyl)-1H-imidazol-5-yl)-4-biphenylyl)-1H-imidazol-2-yl)-1-pyrrolidinyl)-1-methyl-2-oxoethyl)carbamate]: 100 to 999 nM.
Still for that read-out and setting: the value for `COC(=O)N[C@H](C)C(=O)N1CCC[C@H]1c1ncc(-c2ccc(-c3ccc(-c4cnc([C@@H]5CCCN5C(=O)[C@@H](C)NC(=O)OC)[nH]4)cc3)cc2)[nH]1` [Example M18, methyl ((1R)-2-((2S)-2-(5-(4′-(2-((2S)-1-(N-(methoxycarbonyl)-D-alanyl)-2-pyrrolidinyl)-1H-imidazol-5-yl)-4-biphenylyl)-1H-imidazol-2-yl)-1-pyrrolidinyl)-1-methyl-2-oxoethyl)carbamate] was 1000 to 10000 nM; that for `COC(=O)N[C@@H](C(=O)N1CCC[C@H]1c1ncc(-c2ccc(-c3ccc(-c4cnc([C@@H]5CCCN5C(=O)[C@H](NC(=O)OC)C5CC5)[nH]4)cc3)cc2)[nH]1)C1CC1` [Example M22, dimethyl (4,4′-biphenyldiylbis(1H-imidazole-5,2-diyl(2S)-2,1-pyrrolidinediyl((1R)-1-cyclopropyl-2-oxo-2,1-ethanediyl)))biscarbamate] was 1000 to 10000 nM.
For the molecule `COC(=O)N[C@H](C(=O)N1CCC[C@H]1c1ncc(-c2ccc(-c3ccc(-c4cnc([C@@H]5CCCN5C(=O)[C@@H](NC(=O)OC)C5CC5)[nH]4)cc3)cc2)[nH]1)C1CC1` [Example M23, dimethyl (4,4′-biphenyldiylbis(1H-imidazole-5,2-diyl(2S)-2,1-pyrrolidinediyl((1S)-1-cyclopropyl-2-oxo-2,1-ethanediyl)))biscarbamate], the EC50 fell in the range of 1 to 99 nM.
Same read-out and setting: the same measure for `COC(=O)N[C@H](C(=O)N1CCC[C@H]1c1ncc(-c2ccc(-c3ccc(-c4cnc([C@@H]5CCCN5C(=O)[C@@H](NC(=O)OC)C(C)(C)C)[nH]4)cc3)cc2)[nH]1)C(C)(C)C` [Example M24, methyl ((1S)-1-(((2S)-2-(5-(4′-(2-((2S)-1-((2S)-2-((methoxycarbonyl)amino)-3,3-dimethylbutanoyl)-2-pyrrolidinyl)-1H-imidazol-5-yl)-4-biphenylyl)-1H-imidazol-2-yl)-1-pyrrolidinyl)carbonyl)-2,2-dimethylpropyl)carbamate]: 1 to 99 nM; for `C=CC[C@H](NC(=O)OC)C(=O)N1CCC[C@H]1c1ncc(-c2ccc(-c3ccc(-c4cnc([C@@H]5CCCN5C(=O)[C@H](CC=C)NC(=O)OC)[nH]4)cc3)cc2)[nH]1` [Example M25, dimethyl (4,4′-biphenyldiylbis(1H-imidazole-5,2-diyl(2S)-2,1-pyrrolidinediyl((4S)-5-oxo-1-pentene-5,4-diyl)))biscarbamate]: 1 to 99 nM.
On the same count and under the same terms, the same measure for `COC[C@H](NC(=O)OC)C(=O)N1CCC[C@H]1c1ncc(-c2ccc(-c3ccc(-c4cnc([C@@H]5CCCN5C(=O)[C@H](COC)NC(=O)OC)[nH]4)cc3)cc2)[nH]1` [Example M26, methyl ((1S)-2-((2S)-2-(5-(4′-(2-((2S)-1-(N-(methoxycarbonyl)-O-methyl-L-seryl)-2-pyrrolidinyl)-1H-imidazol-5-yl)-4-biphenylyl)-1H-imidazol-2-yl)-1-pyrrolidinyl)-1-(methoxymethyl)-2-oxoethyl)carbamate]: 100 to 999 nM; for `COC(=O)N[C@H](C(=O)N1CCC[C@@H]1c1ncc(-c2ccc(-c3ccc(-c4cnc([C@H]5CCCN5C(=O)[C@@H](NC(=O)OC)C(C)C)[nH]4)cc3)cc2)[nH]1)C(C)C` [Example M28, methyl ((1S)-1-(((2R)-2-(5-(4′-(2-((2R)-1-((2S)-2-((methoxycarbonyl)amino)-3-methylbutanoyl)-2-pyrrolidinyl)-1H-imidazol-5-yl)-4-biphenylyl)-1H-imidazol-2-yl)-1-pyrrolidinyl)carbonyl)-2-methylpropyl)carbamate]: 1000 to 10000 nM.

The record behind these values is US8574563B2 (Bristol-Myers Squibb Company, priority 2006, dated 2013).
